Data set [1] has as its system blood brain barrier (rat brain). Description: Evans Blue accumulation in rat brain after alternating electric fields. It counts as in vivo, rats. From the text:
A set of in vivo experiments on rats was also run to quantify the increase in vessel permeability caused by exposure to the alternating electric fields. These experiments used Evans Blue (EB) dye, which is an azo dye that has a very high affinity for serum albumin (molecule size ˜69 kDa). Because of its large molecule size, serum albumin will ordinarily not be able to get past the BBB.
This was accomplished by shaving each rat's head, positioning a first pair of capacitively coupled electrodes on the top and bottom of the rat's head, and positioning a second pair of capacitively coupled electrodes on the left and right sides of the rat's head. A 100 kHz AC voltage was then applied between the top and bottom electrodes for 1 second, followed by a 100 kHz AC voltage applied between the right and left electrodes for 1 second, in a repeating sequence.
Under the conditions indicated in Table 1 and for the times indicated on Table 1, EB was injected intravenously into the tail vein under anesthesia (Once injected, EB immediately binds to Albumin), and the EB was allowed to circulate for 2 hours in all cases. The following steps were then performed: (a) intracardiac perfusion with saline; (b) brains are sliced in four pieces with a brain slicer; (c) pieces were photographed to localize staining and weighted; (d) EB extraction after tissue homogenization with TCA 50% (1:3) and centrifuge and (e) EB quantification at 610 nm. Results are given as μg EB per g tissue.
During the experiment, two animals from group 2 and one animal from group 4 were excluded (disrupted treatment, failure to inject EB into the tail vein). There were no differences between the animals treated with alternating electric fields (groups 1 and 2) and therefore these animals were grouped together. Similarly, there were no differences between sham heat and control animals (groups 3 and 4) and therefore these animals were grouped together.
EB accumulation in these four specific sections was then measured. In addition, a computer simulation was performed to determine the field strength in each of these four sections. […]

Data set [2] has the same test system. The experiment in a line: DCE-MRI contrast agent accumulation in rat brain. It counts as in vivo, rats. The protocol:
Yet another set of in vivo experiments was performed using Dynamic Contrast Enhanced MRI (DCE-MRI) with intravenous injection of Gadolinium contrast agent (Gd-DTPA, Magnetol, MW 547). In these experiments, test rats were treated with 100 kHz alternating electric fields for 72 h, and control rats were not treated with alternating electric fields for the same period of time. After this 72 h period, the alternating electric field was turned off, the rats were anesthetized, and a series of 60 T1w MRI scans (each of the scans having a duration of 28 seconds) was acquired. The gadolinium contrast agent was injected into the rat's tail vein during the 7th of these 60 scans.
The image analysis for each rat included (1) determining a baseline for each voxel by calculating the mean of the first six T1w MRI scans for each voxel (i.e., the scans prior to the injection of the gadolinium); (2) computing voxel by voxel, the percent signal change (i.e., gadolinium accumulation) over time relative to the baseline; (3) segmenting the brain into anterior, middle, and posterior segments; (4) generating for each of the three segments the mean percent signal change with respect to the baseline over all the voxels in the respective segment and then (5) averaging 4 consecutive time points (i.e. 4 scans) together. Finally, the data from all of the rats within any given group were averaged together. […]

The structures appear in SMILES notation.

Regarding `Cc1cc(-c2ccc(/N=N/c3ccc4c(S(=O)(=O)O)cc(S(=O)(=O)O)c(N)c4c3O)c(C)c2)ccc1/N=N/c1ccc2c(S(=O)(=O)O)cc(S(=O)(=O)O)c(N)c2c1O` [EB, Evans Blue], the “average EB accumulation in the rat brain, averaged over all four sections 1-4” value in data set [1] (100 kHz fields 72 hours vs sham heat/control, p<0.05) is on record as “higher accumulation”. For the same compound, the “EB accumulation, sections 1, 2 (frontal cerebrum)” value in data set [1] (100 kHz fields 72 h vs sham heat/control, EB i.v., circulated 2 hours, sections where field strength was highest) is given as “statistically significant increase”. The “EB accumulation, more posterior sections (3, 4)” value in data set [1] (100 kHz fields 72 h vs sham heat/control, EB i.v., circulated 2 hours, sections where field strength was lower) is “smaller increase (that was not statistically significant)”.
Consider `O=C([O-])CN(CCN(CC(=O)[O-])CC(=O)O)CCN(CC(=O)[O-])CC(=O)O.[Gd+3]` [contrast agent, Gd-DTPA], for which the “contrast agent accumulation in the brain tissue (DCE-MRI percent signal change)” value is “significantly higher” in data set [2] (100 kHz fields 72 h (n=6) vs control rats (n=3), most pronounced in posterior brain) and “not significantly different” in data set [2] (100 kHz fields 72 hours followed by 96 hours without fields (n=7) vs control+96h (n=3)).
